As usually defined, the stoichiometry N is a count of units in the complex or per binding partner.

Several values for one entry are separate records, joined by “and”; a condition that tells them apart may be missing. Equal entries are not always repeated.

One series concerns the target T1, VTC1ΔC (Arabidopsis thaliana, UniProt O22287).
T1 construct: gene CYT1; truncation lacking the C-terminal 139 residues (LβH domain region removed); catalytic domain; recombinant, purified as full-length VTC1
The series can be described thus: GMPase assay, malachite green phosphate release after pyrophosphatase. It is filed as biochemical. The note with it: 0.2 mM Man-1-P, 0.2 mM GTP, 1 mM MgCl2, 1 mM DTT, 50 mM Tris-HCl pH 7.5, 37 °C, 0.2 μM enzyme.

In another series the target is T2, VTC1 (Arabidopsis thaliana, UniProt O22287).
T2 construct: gene CYT1; full-length recombinant, 41 kDa; dimer, tetramer and aggregate in SEC
T2 sequence (O22287 1-361): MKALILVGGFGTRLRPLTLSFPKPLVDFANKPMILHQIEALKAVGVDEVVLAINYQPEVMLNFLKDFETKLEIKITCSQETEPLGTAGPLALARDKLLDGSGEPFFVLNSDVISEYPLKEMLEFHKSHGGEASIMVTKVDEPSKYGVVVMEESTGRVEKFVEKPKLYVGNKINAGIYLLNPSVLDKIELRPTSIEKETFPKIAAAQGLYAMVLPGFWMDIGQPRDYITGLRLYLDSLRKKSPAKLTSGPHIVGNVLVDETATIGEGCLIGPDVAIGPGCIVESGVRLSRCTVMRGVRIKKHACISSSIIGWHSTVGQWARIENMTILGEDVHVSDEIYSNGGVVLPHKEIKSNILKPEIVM
In words: X-ray crystal structure, […] Å. Format: binding.

Series [1] concerns the molecule itself. The series can be described thus: crystal structure; product-bound VTC1 (GDP-Man, PPi, citrate), 3.0 Å, space group R32, two dimers in the asymmetric unit, threefold symmetry.
Series [2] concerns the molecule itself. The series can be described thus: SEC; HiLoad 16/60 Superdex 200 column; purified recombinant VTC1; three peaks compared with protein standards. (SEC sorts molecules by how far they enter the pores of the column.)

In the case of `O=P(O)(O)O[C@H]1O[C@H](CO)[C@@H](O)[C@H](O)[C@@H]1O` [D-mannose-1-phosphate], on VTC1ΔC, the “GMPase assay, malachite green phosphate release after pyrophosphatase” value is recorded as “VTC1ΔC retained, but only ca. one third of the GMPase activity”. As for `Nc1nc2c(ncn2[C@@H]2O[C@H](COP(=O)(O)OP(=O)(O)O[C@H]3O[C@H](CO)[C@@H](O)[C@H](O)[C@@H]3O)[C@@H](O)[C@H]2O)c(=O)[nH]1` [GDP-D-mannose], the “X-ray crystal structure, 3.0 Å” value at VTC1 (active site of catalytic domain, bound in middle protomer, citrate also bound) is recorded as “The product GDP-Man binds at the edge of the central β-sheet (Figure 4C)”.

As for `Nc1nc2c(ncn2[C@@H]2O[C@H](COP(=O)(O)OP(=O)(O)OP(=O)(O)O)[C@@H](O)[C@H]2O)c(=O)[nH]1` [GTP], on VTC1ΔC, the “GMPase assay, malachite green phosphate release after pyrophosphatase” value is recorded as “VTC1ΔC retained, but only ca. one third of the GMPase activity”.

As to `O=P(O)(O)OP(=O)(O)O` [inorganic pyrophosphate], the “X-ray crystal structure, 3.0 Å” value on VTC1 (catalytic domain, β1–η1 loop, bound in inner and outer protomers, same site as citrate) was “the inner and outer protomers each bind a PPi”.

B1: Arabidopsis thaliana GDP-D-mannose pyrophosphorylase VITAMIN C … 1 (enzyme, UniProt O22287 1-361, looked up)
chain: T2 sequence (O22287 1-361)
notes: VTC1 (GDP-D-mannose pyrophosphorylase), Arabidopsis thaliana, full-length; recombinant protein stated to have a molecular weight of 41 kDa; also called VTC1; GMPase; source: recombinant, purified (SEC on HiLoad 16/60 Superdex 200); production described previously (Zhao and Liu, 2016)
In the case of B1, the “stoichiometry N” value in series [1] is 12; in series [2] it was 2 and 4.

The values are drawn from paper PMC9168903, “Crystal Structures of Arabidopsis thaliana GDP-D-Mannose Pyrophosphorylase VITAMIN C DEFECTIVE 1” (Frontiers in Plant Science, 2022).
